# Assay results reported in publication PMC10331583, “Control of fibrosis with enhanced safety via asymmetric inhibition of prolyl‐tRNA synthetase 1” (EMBO Molecular Medicine, 2023).
# “And” between values parts separate entries of the source, which are not always exact repeats. Equal entries are not always repeated. Where two headings read alike, the source gives them in different places.
# Experiments:
# [1] = system: WI‐26 VA4 cells; assay: CellTiter‐Glo assay (cytotoxicity)
# Method: (§1) After 24 h, the cells were incubated with various concentrations of compounds for 48 h. The level of ATP as a measure of cell viability was determined using a CellTiter‐Glo® luminescent cell viability assay kit (Promega, G7571) following the manufacturer's instructions.
# (§2) WI‐26 VA4 cells were seeded at 1.2 × 10^4 cells/well in 96‐well white plates. After 24 h, the cells were incubated with the indicated concentrations of compounds for 72 h. The viability was determined as described above.
# [2] = CellTiter‐Glo assay (cytotoxicity); conditions: human, WI-26 VA4 cells
# Method: as §1, §2
# [3] = system: WI‐26 VA4 cells; assay: Puromycin incorporation assay; type: cell-based, human; conditions: for activity at 0.01 µM: WI26VA4, 10 nM; for activity at 0.03 µM: WI26VA4, 30 nM; for activity at 3 µM: WI26VA4, 3000 nM; for activity at 10 µM: WI26VA4, 10000 nM
# Method: After being rinsed with cold PBS twice, the cells were collected and resuspended in 200 μl of the carbonate bicarbonate buffer (Sigma Aldrich, C3041‐50CAP) with protease inhibitor. The cell lysates were obtained by sonication and centrifugation at 20,000 g for 15 min at 4°C. After protein quantification using a Pierce™ BCA Protein Assay Kit (Thermo Fisher Scientific, 23225), 400 ng of the proteins was coated to ELISA plates for 18 h at 4°C. […] The plates were rinsed with the washing buffer for three times after each antibody incubation step. […] The amount of puromycin incorporated in proteins was determined by measuring the absorbance at 450 nm (reference wavelength at 620 nm). Experimental values marked in red with strikethrough text in the Figure Source Data file were excluded from the analysis. These values were determined by considering the values of biological and technical replicates under the same condition, as well as the values at the former and later chemical concentrations.
# [4] = log(inhibitor) vs. response, variable slope (four parameters), concentration in nM
# [5] = Homo sapiens, read-out: Puromycin, % of control, average
# [6] = Homo sapiens, read-out: Puromycin, % of control, single replicate
smiles,measurement,setting,value
O=C(C[C@H]1NCCC[C@@H]1O)Cn1cnc2ccc(-c3cccc(F)c3)cc21 [DWN11251],activity at 0.001 µM,"[1]; Homo sapiens, WI26VA4, read-out: CellTiter-Glo % of control, 1 nM, Experiment #2, replicates",107%
same,activity at 0.003 µM,"[1]; Homo sapiens, WI26VA4, read-out: CellTiter-Glo % of control, 3 nM, Experiment #1, replicates",122%
same,activity at 0.003 µM,"[1]; Homo sapiens, WI26VA4, read-out: CellTiter-Glo % of control, 3 nM, Experiment #2, replicates",111%
same,activity at 0.01 µM,"[1]; Homo sapiens, WI26VA4, read-out: CellTiter-Glo % of control, 10 nM, Experiment #1, replicates",100%
same,activity at 0.01 µM,"[1]; Homo sapiens, WI26VA4, read-out: CellTiter-Glo % of control, 10 nM, Experiment #2, replicates",121%
same,activity at 0.03 µM,"[1]; Homo sapiens, WI26VA4, read-out: CellTiter-Glo % of control, 30 nM, Experiment #1, replicates",108%
same,activity at 0.03 µM,"[1]; Homo sapiens, WI26VA4, read-out: CellTiter-Glo % of control, 30 nM, Experiment #2, replicates",124%
same,activity at 0.1 µM,"[1]; Homo sapiens, WI26VA4, read-out: CellTiter-Glo % of control, 100 nM, Experiment #1, replicates",112%
same,activity at 0.1 µM,"[1]; Homo sapiens, WI26VA4, read-out: CellTiter-Glo % of control, 100 nM, Experiment #2, replicates",126%
same,activity at 0.3 µM,"[1]; Homo sapiens, WI26VA4, read-out: CellTiter-Glo % of control, 300 nM, Experiment #1, replicates",98.2%
same,activity at 0.3 µM,"[1]; Homo sapiens, WI26VA4, read-out: CellTiter-Glo % of control, 300 nM, Experiment #2, replicates",105%
same,activity at 1 µM,"[1]; Homo sapiens, WI26VA4, read-out: CellTiter-Glo % of control, 1000 nM, Experiment #1, replicates",73.2%
same,activity at 1 µM,"[1]; Homo sapiens, WI26VA4, read-out: CellTiter-Glo % of control, 1000 nM, Experiment #2, replicates",76.4%
same,activity at 3 µM,"[1]; Homo sapiens, WI26VA4, read-out: CellTiter-Glo % of control, 3000 nM, Experiment #1, replicates",36.1%
same,activity at 3 µM,"[1]; Homo sapiens, WI26VA4, read-out: CellTiter-Glo % of control, 3000 nM, Experiment #2, replicates",46.1%
same,activity at 10 µM,"[1]; Homo sapiens, WI26VA4, read-out: CellTiter-Glo % of control, 10000 nM, Experiment #1, replicates",26.6%
same,activity at 10 µM,"[1]; Homo sapiens, WI26VA4, read-out: CellTiter-Glo % of control, 10000 nM, Experiment #2, replicates",30%
same,activity at 30 µM,"[1]; Homo sapiens, WI26VA4, read-out: CellTiter-Glo % of control, 30000 nM, Experiment #1, replicates",12.4%
same,activity at 30 µM,"[1]; Homo sapiens, WI26VA4, read-out: CellTiter-Glo % of control, 30000 nM, Experiment #2, replicates",11.9%
same,activity at 100 µM,"[1]; Homo sapiens, WI26VA4, read-out: CellTiter-Glo % of control, 100000 nM, Experiment #1, replicates",1.59%
same,activity at 100 µM,"[1]; Homo sapiens, WI26VA4, read-out: CellTiter-Glo % of control, 100000 nM, Experiment #2, replicates",0.95%
same,activity at 0.0001 µM,"[1]; Homo sapiens, WI26VA4, read-out: CellTiter-Glo % of control, average, 0.1 nM, average",110%
same,activity at 0.0003 µM,"[1]; Homo sapiens, WI26VA4, read-out: CellTiter-Glo % of control, average, 0.3 nM, average",116%
same,activity at 0.001 µM,"[1]; Homo sapiens, WI26VA4, read-out: CellTiter-Glo % of control, average, 1 nM, average",108%
same,activity at 0.003 µM,"[1]; Homo sapiens, WI26VA4, read-out: CellTiter-Glo % of control, average, 3 nM, average",112%
same,activity at 0.01 µM,"[1]; Homo sapiens, WI26VA4, read-out: CellTiter-Glo % of control, average, 10 nM, average",113%
same,activity at 0.03 µM,"[1]; Homo sapiens, WI26VA4, read-out: CellTiter-Glo % of control, average, 30 nM, average",119%
same,activity at 0.1 µM,"[1]; Homo sapiens, WI26VA4, read-out: CellTiter-Glo % of control, average, 100 nM, average",119%
same,activity at 0.3 µM,"[1]; Homo sapiens, WI26VA4, read-out: CellTiter-Glo % of control, average, 300 nM, average",101%
same,activity at 1 µM,"[1]; Homo sapiens, WI26VA4, read-out: CellTiter-Glo % of control, average, 1000 nM, average",76.7%
same,activity at 3 µM,"[1]; Homo sapiens, WI26VA4, read-out: CellTiter-Glo % of control, average, 3000 nM, average",41.3%
same,activity at 10 µM,"[1]; Homo sapiens, WI26VA4, read-out: CellTiter-Glo % of control, average, 10000 nM, average",29%
same,activity at 30 µM,"[1]; Homo sapiens, WI26VA4, read-out: CellTiter-Glo % of control, average, 30000 nM, average",14.4%
same,activity at 100 µM,"[1]; Homo sapiens, WI26VA4, read-out: CellTiter-Glo % of control, average, 100000 nM, average",1.22%
same,CellTiter-Glo LogIC50 (best-fit value),[1]; [4],3.259
same,CC50 at 72 h,[2],1.82 µM
same,"Puromycin, % of control, single replicate","[3]; 10 nM, 0.01 µM",101.25 % of control and 94.41 % of control and 100.93 % of control and 102.37 % of control and 93.16 % of control and 112.99 % of control and 111.09 % of control and 112.68 % of control
same,"Puromycin, % of control, single replicate","[3]; 30 nM, 0.03 µM",103.89 % of control and 102.07 % of control and 109.54 % of control and 108.35 % of control and 99.59 % of control and 116.49 % of control and 113.07 % of control and 114.50 % of control
same,"Puromycin, % of control, single replicate","[3]; 100 nM, 0.1 µM",103.01 % of control and 100.87 % of control and 101.28 % of control and 109.49 % of control and 107.49 % of control and 101.40 % of control and 114.53 % of control and 111.00 % of control and 121.31 % of control
same,"Puromycin, % of control, single replicate","[3]; 300 nM, 0.3 µM",88.40 % of control and 85.23 % of control and 87.58 % of control and 94.28 % of control and 93.99 % of control and 87.62 % of control and 94.72 % of control and 94.55 % of control and 109.57 % of control
same,"Puromycin, % of control, single replicate","[3]; 1000 nM, 1 µM",106.50 % of control and 101.49 % of control and 107.47 % of control and 104.76 % of control and 102.45 % of control and 95.18 % of control and 122.63 % of control and 109.16 % of control and 107.56 % of control
same,"Puromycin, % of control, single replicate","[3]; 3000 nM, 3 µM",61.69 % of control and 62.47 % of control and 62.84 % of control and 57.24 % of control
same,"Puromycin, % of control, single replicate","[3]; 10000 nM, 10 µM",19.53 % of control and 20.29 % of control and 21.78 % of control and 23.63 % of control and 20.64 % of control and 21.23 % of control and 21.73 % of control and 22.58 % of control
same,"Puromycin, % of control, single replicate","[3]; 30000 nM, 30 µM",0.45 % of control and 0.66 % of control and 0.0147 % of control and 1.69 % of control and 1.62 % of control and 0.33 % of control and 0.81 % of control and 1.20 % of control and -0.12 % of control
same,activity at 0.01 µM,[3]; [5],103%
same,activity at 0.01 µM,[3]; [6],99.1%
same,activity at 0.03 µM,[3]; [5],108%
same,activity at 0.03 µM,[3]; [6],108%
same,activity at 0.1 µM,"[3]; Homo sapiens, WI26VA4, 100 nM, read-out: Puromycin, % of control, average",108%
same,activity at 0.3 µM,"[3]; Homo sapiens, WI26VA4, 300 nM, read-out: Puromycin, % of control, average",92.9%
same,activity at 1 µM,"[3]; Homo sapiens, WI26VA4, 1000 nM, read-out: Puromycin, % of control, average",106%
same,activity at 3 µM,[3]; [5],60.8%
same,activity at 3 µM,[3]; [6],59.6%
same,activity at 10 µM,[3]; [5],21.3%
same,activity at 10 µM,[3]; [6],20.3%
same,activity at 30 µM,"[3]; Homo sapiens, WI26VA4, 30000 nM, read-out: Puromycin, % of control, average",0.74%
same,IC50,"[3]; Homo sapiens, WI26VA4, log(inhibitor) vs. response, variable slope (four parameters), read-out: Puromycin, IC50 (best-fit value)",4.24 µM
same,"Puromycin, HillSlope (best-fit value)","[3]; log(inhibitor) vs. response, variable slope (four parameters)",-1.784
same,"Puromycin, LogIC50 (best-fit value)",[3]; [4],3.627
